Results on 12 compounds are retold here after patent US20240083857A1, “2-Methyl-Quinazolines” (Bayer Pharma Aktiengesellschaft, priority 2017, published 2024).

Where two headings read alike, the source gives them in different places.

For test [1], the target named is Epidermal Growth Factor Receptor (EGFR) (Homo sapiens (Human), UniProt P00533). Kind of test: EGFR kinase assay (TR-FRET). The class given is biochemical. The text has this: EGFR inhibitory activity of compounds of the present invention was quantified employing the TR-FRET based EGFR assay as described in the following paragraphs.
Epidermal Growth Factor Receptor (EGFR), sequence (P00533 25-1210): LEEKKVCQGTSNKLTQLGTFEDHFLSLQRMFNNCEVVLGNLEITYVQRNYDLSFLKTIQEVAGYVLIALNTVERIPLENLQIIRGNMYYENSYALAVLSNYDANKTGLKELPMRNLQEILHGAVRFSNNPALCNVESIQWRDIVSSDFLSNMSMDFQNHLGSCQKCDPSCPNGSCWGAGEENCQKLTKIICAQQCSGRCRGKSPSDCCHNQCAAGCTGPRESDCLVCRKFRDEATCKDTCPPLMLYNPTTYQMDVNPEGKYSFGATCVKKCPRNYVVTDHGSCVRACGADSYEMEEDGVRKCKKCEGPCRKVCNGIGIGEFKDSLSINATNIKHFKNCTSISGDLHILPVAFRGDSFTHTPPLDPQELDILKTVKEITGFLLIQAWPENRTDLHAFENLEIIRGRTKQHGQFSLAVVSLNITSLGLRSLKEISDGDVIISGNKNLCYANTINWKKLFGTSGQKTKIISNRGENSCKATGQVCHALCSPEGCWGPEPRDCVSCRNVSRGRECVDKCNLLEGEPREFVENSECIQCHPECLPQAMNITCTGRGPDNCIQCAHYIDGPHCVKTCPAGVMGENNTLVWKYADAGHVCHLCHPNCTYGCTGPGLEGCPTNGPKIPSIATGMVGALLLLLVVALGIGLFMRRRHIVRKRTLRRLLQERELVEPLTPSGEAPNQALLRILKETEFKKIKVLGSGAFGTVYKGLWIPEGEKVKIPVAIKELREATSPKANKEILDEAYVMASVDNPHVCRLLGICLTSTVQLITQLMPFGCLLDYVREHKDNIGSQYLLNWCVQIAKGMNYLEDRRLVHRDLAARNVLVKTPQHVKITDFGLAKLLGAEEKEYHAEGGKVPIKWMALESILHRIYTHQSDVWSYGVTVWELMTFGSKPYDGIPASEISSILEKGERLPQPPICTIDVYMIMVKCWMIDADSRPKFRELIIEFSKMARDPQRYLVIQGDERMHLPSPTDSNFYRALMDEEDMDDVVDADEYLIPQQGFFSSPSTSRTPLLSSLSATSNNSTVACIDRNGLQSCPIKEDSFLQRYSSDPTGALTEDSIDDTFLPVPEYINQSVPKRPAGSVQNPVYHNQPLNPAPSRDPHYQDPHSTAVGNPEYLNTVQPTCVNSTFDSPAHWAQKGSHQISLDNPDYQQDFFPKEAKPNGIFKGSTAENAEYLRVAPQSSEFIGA
Epidermal Growth Factor Receptor (EGFR) affinity purified from human carcinoma A431 cells (Sigma-Aldrich, #E3641) was used as kinase. As substrate for the kinase reaction the biotinylated peptide biotin-Ahx-[…] (SEQ ID NO 5) (C-terminus in amid form) was used which can be purchased e.g. form the company Biosyntan GmbH (Berlin-Buch, Germany).
For the assay 50 nL of a 100 fold concentrated solution of the test compound in DMSO was pipetted into a black low volume 384 well microtiter plate (Greiner Bio-One, Frickenhausen, Germany), 2 μL of a solution of EGFR in aqueous assay buffer [50 mM Hepes/HCl pH 7.0, 1 mM MgCl2, 5 mM MnCl2, 0.5 mM activated sodium ortho-vanadate, 0.005% (v/v) Tween-20]were added and the mixture was incubated for 15 min at 22° C. to allow pre-binding of the test compounds to the enzyme before the start of the kinase reaction. […] The concentration of EGFR was adjusted depending of the activity of the enzyme lot and was chosen appropriate to have the assay in the linear range, typical concentration were about 3 U/ml. The reaction was stopped by the addition of 5 μl of a solution of HTRF detection reagents (0.1 μM streptavidine-XL665 [Cis Biointernational] and 1 nM PT66-Tb-Cryptate, an terbium-cryptate labelled anti-phospho-tyrosine antibody from Cis Biointernational [instead of the PT66-Tb-cryptate PT66-Eu-Chelate from Perkin Elmer can also be used]) in an aqueous EDTA-solution (80 mM EDTA, 0.2% (w/v) bovine serum albumin in 50 mM HEPES pH 7.5).
The resulting mixture was incubated 1 h at 22° C. to allow the binding of the biotinylated phosphorylated peptide to the streptavidine-XL665 and the PT66-Eu-Chelate. Subsequently the amount of phosphorylated substrate was evaluated by measurement of the resonance energy transfer from the PT66-Tb-Cryptate to the streptavidine-XL665. Therefore, the fluorescence emissions at 620 nm and 665 nm after excitation at 337 nm were measured in a HTRF reader, e.g. a Pherastar (BMG Labtechnologies, Offenburg, Germany) or a Viewlux (Perkin-Elmer). The ratio of the emissions at 665 nm and at […] was taken as the measure for the amount of phosphorylated substrate.

Test [2] addresses human SOS1 (nucleotide exchange of K-Ras^G12C) (Homo sapiens, UniProt Q07889). The experiment in a line: Biochemical assay 2: K-Ras^G12C activation assay by hSOS1 at high GTP concentration (HTRF).
[3] abbreviates: values given in μM, read-out: EGFR kinase inhibition IC50.
[4] abbreviates: high GTP, read-out: Assay 2 (KRAS-Activation by SOS high GTP) activity expressed as IC50.
Setting [5] is: E-notation values, unit inferred, read-out: EGFR-assay IC50.
The mark [6] stands for this setting: E-notation values, unit inferred, 50 μM GTP, read-out: Assay 2 (KRAS-Activation, high GTP) IC50.
The mark [7] stands for this setting: in μM, read-out: EGFR-assay IC50.

Consider `COc1cc2nc(C)nc(NC(C)c3ccc(-c4ccccc4CN4CCN(C(=O)OC(C)(C)C)CC4)s3)c2cc1OC` (stereo not drawn) [Example 306, tert-butyl 4-[2-(5-{1-[(6,7-dimethoxy-2-methylquinazolin-4-yl)amino]ethyl}thiophen-2-yl)benzyl]piperazine-1-carboxylate], for which the IC50 in test [1] (setting [3]) is above 20 µM; in test [2] (setting [4]), 4.2 µM.
Consider `Cc1nc(NC(C)c2ccc(Br)s2)c2cc(N3CCCC3)ccc2n1` (stereo not drawn) [Example 419, N-[1-(5-bromothiophen-2-yl)ethyl]-2-methyl-6-(pyrrolidin-1-yl)quinazolin-4-amine], for which the IC50 in test [1] (setting [5]) is above 20 µM; in test [2] (setting [6]), 3.74 µM.
For `COc1cc2nc(C)nc(NC(C)c3ccc(-c4ccc(CNC(=O)OC(C)(C)C)o4)s3)c2cc1OC` (stereo not drawn) [Example 236, tert-butyl {[5-(5-{1-[(6,7-dimethoxy-2-methylquinazolin-4-yl)amino]ethyl}thiophen-2-yl)furan-2-yl]methyl}carbamate], the IC50 in test [1] (setting [3]) was above 20 µM; in test [2] (setting [4]), 3.82 µM.
For `COc1cc2nc(C)nc(NC(C)c3ccc(-c4ccccc4C(O)C(F)(F)F)s3)c2cc1OC` (stereo not drawn) [Example 380, 1-[2-(5-{1-[(6,7-dimethoxy-2-methylquinazolin-4-yl)amino]ethyl}thiophen-2-yl)phenyl]-2,2,2-trifluoroethanol], the IC50 is above 20 µM in test [1] (setting [7]) and 1.6 µM in test [2] (setting [6]).
In the case of `COc1cc2nc(C)nc(NC(C)c3c(C)ccc4[nH]ncc34)c2cc1OC` (stereo not drawn) [Example 7, 6,7-dimethoxy-2-methyl-N-[1-(5-methyl-1H-indazol-4-yl)ethyl]quinazolin-4-amine], the IC50 in test [1] (setting [3]) was above 20 µM. Also, the inhibition at 20 µM in test [2] (read-out: Assay 2 (KRAS-Activation by SOS high GTP) activity expressed as % inhibition at 20 μM, high GTP, at 20 μM) came out at 18%.
For the compound `COc1cc2nc(C)nc(NC(C)c3ccc(-c4c(Cl)cccc4CN)s3)c2cc1OC` (stereo not drawn) [Example 409, N-[1-{5-[2-(aminomethyl)-6-chlorophenyl]thiophen-2-yl}ethyl]-6,7-dimethoxy-2-methylquinazolin-4-amine], the figures for the IC50 in test [1] (setting [5]) and in test [2] (setting [6]) were above 20 µM and 0.028 µM, respectively.
As for `COc1cc2nc(C)nc(NC(C)c3ccc(-c4ccccc4C(O)Cc4ccccc4)s3)c2cc1OC` (stereo not drawn) [Example 376, 1-[2-(5-{1-[(6,7-dimethoxy-2-methylquinazolin-4-yl)amino]ethyl}thiophen-2-yl)phenyl]-2-phenylethanol], the IC50 was above 20 µM in test [1] (setting [7]) and 18.4 µM in test [2] (setting [6]).
On to `COc1cc2nc(C)nc(NC(C)c3sc(Br)cc3Cl)c2cc1OC` (stereo not drawn) [Example 428, N-[1-(5-bromo-3-chlorothiophen-2-yl)ethyl]-6,7-dimethoxy-2-methylquinazolin-4-amine], for which the IC50 is above 20 µM in test [1] (setting [5]) and 0.705 µM in test [2] (setting [6]).
For the compound `Cc1nc(N[C@H](C)c2cccc(Cl)c2)c2cc(CO)ccc2n1` [Example 373, (4-{[(1R)-1-(3-chlorophenyl)ethyl]amino}-2-methylquinazolin-6-yl)methanol], the IC50 in test [1] (setting [7]) is above 20 µM; in test [2] (setting [6]), 6.2 µM.
Regarding `COc1cc2nc(C)nc(NC(C)c3sc(-c4ccccc4CNC(=O)OC(C)(C)C)cc3Cl)c2cc1OC` (stereo not drawn) [Example 429, tert-butyl [2-(4-chloro-5-{1-[(6,7-dimethoxy-2-methylquinazolin-4-yl)amino]ethyl}thiophen-2-yl)benzyl]carbamate], the 50% inhibitory concentration (IC50) in test [1] (setting [5]) is above 20 µM; in test [2] (setting [6]) it was 3.05 µM.
On to `COc1cc2nc(C)nc(NC(C)c3cc(C)c(-c4ccc(F)cc4CN)s3)c2cc1OC` (stereo not drawn) [Example 399, N-(1-{5-[2-(aminomethyl)-4-fluorophenyl]-4-methyl-2-thienyl}ethyl)-6,7-dimethoxy-2-methylquinazolin-4-amine], for which the figures for the IC50 in test [1] (setting [5]) and in test [2] (setting [6]) were above 20 µM and 0.192 µM, respectively.
With `Cc1nc(N[C@H](C)c2cccc(Cl)c2)c2cc(-c3cnn(C)c3)ccc2n1` [Example 406, N-[(1R)-1-(3-chlorophenyl)ethyl]-2-methyl-6-(1-methyl-1H-pyrazol-4-yl)quinazolin-4-amine], the IC50 in test [1] (setting [5]) was above 20 µM; in test [2] (setting [6]) it was 0.4 µM.
